Test results published in article PMC9226319, “Peripherally restricted transthyretin-based delivery system for probes and therapeutics avoiding opioid-related side effects” (Nature Communications, 2022).
Several values for one entry are separate records, joined by “and”; a condition that tells them apart may be missing. Equal entries are not always repeated. Where two headings read alike, the source gives them in different places.

Columns and labels:
[1] = target: T1, human mu-opioid receptors (Homo sapiens, UniProt P35372); experiment: biochemical; type: biochemical; parameters: host or cells: CHO-K1 (Chinese hamster ovary), membrane preparation
T1 sequence (P35372 whole entry): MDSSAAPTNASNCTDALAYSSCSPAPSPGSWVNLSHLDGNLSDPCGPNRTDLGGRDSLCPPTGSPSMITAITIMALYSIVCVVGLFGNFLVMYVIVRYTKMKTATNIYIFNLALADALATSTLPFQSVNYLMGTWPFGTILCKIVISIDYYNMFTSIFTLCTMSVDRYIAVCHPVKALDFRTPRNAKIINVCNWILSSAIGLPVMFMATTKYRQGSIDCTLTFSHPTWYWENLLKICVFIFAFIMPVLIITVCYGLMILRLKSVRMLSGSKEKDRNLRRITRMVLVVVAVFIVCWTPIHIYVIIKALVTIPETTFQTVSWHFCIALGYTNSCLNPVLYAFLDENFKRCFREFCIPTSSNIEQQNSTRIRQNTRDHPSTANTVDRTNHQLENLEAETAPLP

holo-RBP-TTR interaction = holo-RBP-TTR interaction (Homo sapiens, UniProt P02766); experiment: Effect on holo-RBP-TTR interaction in human serum (cross-linking, Western blot)
[2] = target: T1, human mu-opioid receptors; experiment: biochemical; type: binding
in vivo [3] = conditions: male, Sprague Dawley, rat, iv
purified human TTR = purified human TTR (Homo sapiens, UniProt P02766); experiment: Fluorescence polarization (FP) binding assay, ligands to TTR in buffer
[4] = Serum stability assay of AG10-L2-Nal, rat serum; type: in vitro ADME; conditions: 100 µM
Procedure: (§1) AG10-L2-Nal (100 μM) was incubated in sera, and the concentration remaining in respective media was determined at 0 and 48 h using HPLC. Bar graphs represent the mean of % compound remaining ± s.d. […] The plasma, brain tissue, and CSF were collected at 30 min after dosing. The ratio of the brain (ng/g) versus plasma concentration (ng/mL) is expressed as the percentage brain to plasma ratio. The ratio of the CSF (ng/mL) versus plasma concentration (ng/mL) is expressed as the percentage CSF to plasma ratio. Bar graphs show the respective mean (±s.d.) (n = 3 for each group). […] The concentration of the test compounds in plasma was determined at different time points and expressed as means ± s.d. of three biological replicates. Source data are provided as a Source Data file. […]
(§2) (Taiwan). The experimental procedure was performed as reported12. […]
(§3) Serum stability assay of AG10-L2-Nal. […] 100 μL samples were analyzed at 0 h, 24 h, and 48 h time intervals. […] The supernatant was analyzed using Waters™ XBridge C18 column (4.6x250 mm, 5μm) on Waters e2695 separations module HPLC system connected to a Waters 2998 photodiode array detector operating between the UV ranges of 200-400 nm. […]

[5] = target: T2, delta-opioid receptor (human) (Homo sapiens, UniProt P41143); experiment: Human delta-opioid receptor (agonist radioligand [3H]-DADLE) binding assay; conditions: for % Inhibition of Control Specific Binding: delta-opioid receptor binding, replicates 1st/2nd
T2 construct: Eurofins Cerep (France)
T2 sequence (P41143 whole entry): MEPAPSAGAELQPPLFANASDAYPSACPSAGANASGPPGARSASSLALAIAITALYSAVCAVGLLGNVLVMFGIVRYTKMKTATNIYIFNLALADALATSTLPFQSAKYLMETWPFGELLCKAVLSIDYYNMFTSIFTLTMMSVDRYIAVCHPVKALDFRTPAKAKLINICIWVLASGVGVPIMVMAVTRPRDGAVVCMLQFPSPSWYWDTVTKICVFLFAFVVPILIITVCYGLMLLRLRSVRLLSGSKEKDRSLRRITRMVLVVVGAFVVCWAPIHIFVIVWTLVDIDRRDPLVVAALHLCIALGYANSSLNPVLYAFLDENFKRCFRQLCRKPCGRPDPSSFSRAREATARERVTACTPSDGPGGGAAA

[6] = rat; for plasma concentration: SC 16 µmol/kg, individual animals
[7] = rat; for plasma concentration: individual animals
in vitro = conditions: human, % Cell viability, replicates
male Sprague-Dawley rats = experiment: Gastrointestinal (GI) transit (charcoal meal) assays; type: in vivo, rat; conditions: rat, in vivo
[8] = Serum stability assay of AG10-L2-Nal, mouse serum; type: in vitro ADME; conditions: 100 µM
Procedure: as §1, §2, §3

in vivo [9] = conditions: male, Sprague Dawley, rat, iv, percentage CSF to plasma ratio

C=CCN1CC[C@]23c4c5ccc(O)c4O[C@H]2[C@@H](OCc2cn(CCNCCCCCCOc4cc(OCCCc6c(C)n[nH]c6C)cc(C(=O)O)c4)nn2)CC[C@@]3(O)[C@H]1C5 [AG10-L2-Nal]
IC50 [1]: 7.5 nM | Kb [1]: 0.81 nM | agonism relative to DAMGO [1]: 2% | fold increase of morphine EC50 [1]: 950 fold | fold more potent than naloxegol in functional assay [1]: 10 fold | interference with holo-RBP binding to TTR (holo-RBP-TTR interaction; 20 µM in human serum, 2 h 37 °C): does not interfere with | %holo RBP binding to TTR (holo-RBP-TTR interaction; human serum, quantified from gel image, replicates (Supp Fig.14b)): 7% and 8.1% and 7.9% | % Inhibition of Control Specific Binding [2]: 88.5% | fold better mu-opioid receptor binding affinity than MNTX [2]: 17 fold | fold higher mu-opioid receptor binding affinity than AG10-L1-Nal [2]: 5.7 fold | Ki ([2]; binding affinity to mu-opioid receptor (Ki)): 0.35 nM | Ki ([2]; binding affinity to mu-opioid receptor (Ki) in the presence of TTR): 1.3 nM | AUC(0-inf) (in vivo [3]; 4.84 umol/kg): 16.9 ± 1.09 µM·h | Vd (in vivo [3]; 4.84 umol/kg): 0.12 ± 0.02 L/kg | clearance (in vivo [3]; 4.84 umol/kg): 4.83 mL/min/kg | half-life (in vivo [3]; 4.84 umol/kg): 5.98 ± 0.81 h | concentration at 0.03 h (in vivo [3]; 4.84 µmol/kg, plasma concentration, IV 4.84 µmol/kg, 0.03 h, individual animals): 48800 nM | concentration at 1 h (in vivo [3]; 4.84 µmol/kg, plasma concentration, IV 4.84 µmol/kg, 1 h, individual animals): 295 nM | concentration at 2 h (in vivo [3]; 4.84 µmol/kg, plasma concentration, IV 4.84 µmol/kg, 2 h, individual animals): 234 nM | concentration at 12 h (in vivo [3]; 4.84 µmol/kg, plasma concentration, IV 4.84 µmol/kg, 12 h, individual animals): 9.6 nM | Kd (purified human TTR): 333 nM | % Fluorescence polarization (mean) (purified human TTR; log [nM] inhibitor 0.990): 100.000% | % Fluorescence polarization (mean) (purified human TTR; log [nM] inhibitor 1.291): 106.646% | % Fluorescence polarization (mean) (purified human TTR; log [nM] inhibitor 1.592): 105.531% | % Fluorescence polarization (mean) (purified human TTR; log [nM] inhibitor 1.893): 103.770% | % Fluorescence polarization (mean) (purified human TTR; log [nM] inhibitor 2.194): 97.021% | % Fluorescence polarization (mean) (purified human TTR; log [nM] inhibitor 2.495): 90.708% | % Fluorescence polarization (mean) (purified human TTR; log [nM] inhibitor 2.796): 79.479% | % Fluorescence polarization (mean) (purified human TTR; log [nM] inhibitor 3.097): 54.083% | % Fluorescence polarization (mean) (purified human TTR; log [nM] inhibitor 3.398): 38.835% | % Fluorescence polarization (mean) (purified human TTR; log [nM] inhibitor 3.699): 31.550% | % Fluorescence polarization (mean) (purified human TTR; log [nM] inhibitor 4.000): 21.649% | % Fluorescence polarization (mean) (purified human TTR; log [nM] inhibitor […]): 0.000% | % compound remaining in rat serum ([4]; 0 h, replicates): 101.22% and 98.78% and 100.03% | % compound remaining in rat serum ([4]; 37 °C, 48 h, table replicates): 100% and 99.06% and 98.97% and 99.95% | Ki ([5]; [3H]-DADLE displacement, read-out: binding affinity to delta-opioid receptor (Ki)): 5.5 nM | % Inhibition of Control Specific Binding ([5]; 1.0E-07 M): 91.6% and 94.2% | % Inhibition of Control Specific Binding ([5]; 1.0E-08 M): 53.9% and 52.4% | % Inhibition of Control Specific Binding ([5]; 1.0E-09 M): 14.6% and 12.2% | % Inhibition of Control Specific Binding ([5]; 1.0E-10 M): 2.7% and 9.1% | % Inhibition of Control Specific Binding ([5]; 5.0E-08 M): 83.7% and 87.4% | plasma concentration ([6]; 0.03 h): 1290 nM and 1240 nM and 552 nM | plasma concentration ([6]; 0.25 h): 5340 nM and 6840 nM | plasma concentration ([6]; 0.5 h): 3960 nM and 4020 nM | plasma concentration ([6]; 0.75 h): 3620 nM and 2900 nM | plasma concentration ([6]; 1 h): 3480 nM and 3260 nM | plasma concentration ([6]; 2 h): 1350 nM and 1760 nM | plasma concentration ([6]; 4 h): 1120 nM and 1540 nM | plasma concentration ([6]; 6 h): 623 nM and 938 nM | plasma concentration ([6]; 8 h): 699 nM and 1120 nM | plasma concentration ([6]; 12 h): 166 nM and 200 nM and 516 nM | plasma concentration ([6]; 24 h): 49.7 nM and 31.1 nM | k ([6]; single SC dose 16 µmol/kg): 0.20 ± 0.04 h⁻¹ | fold higher AUCinf than naloxegol ([7]; IV 4.84 µmol/kg): ~23 fold | fold higher AUCinf than naloxone ([7]; IV 4.84 µmol/kg): ~12 fold | fold increase in half-life compared to naloxegol ([7]; IV 4.84 µmol/kg): 3.5 fold | fold increase in half-life compared to naloxone ([7]; IV 4.84 µmol/kg): 7 fold | plasma concentration ([7]; IV 4.84 µmol/kg, 0.03 h): 57263.9 nM and 57506.1 nM | plasma concentration ([7]; IV 4.84 µmol/kg, 0.5 h): 2941.9 nM and 1319.6 nM and 2239.7 nM | plasma concentration ([7]; IV 4.84 µmol/kg, 1 h): 296.6 nM and 441.9 nM | plasma concentration ([7]; IV 4.84 µmol/kg, 2 h): 155 nM and 181.6 nM | plasma concentration ([7]; IV 4.84 µmol/kg, 4 h): 92.9 nM and 28.6 nM and 125.9 nM | plasma concentration ([7]; IV 4.84 µmol/kg, 6 h): 75.2 nM and 37 nM and 51.6 nM | plasma concentration ([7]; IV 4.84 µmol/kg, 8 h): 23 nM and 56.2 nM and 25.7 nM | plasma concentration ([7]; IV 4.84 µmol/kg, 12 h): 14.4 nM and 12 nM | plasma concentration ([7]; IV 4.84 µmol/kg, 24 h): 3.4 nM and 7.2 nM and 2.7 nM | k ([7]; single IV bolus 4.84 µmol/kg): 0.12 ± 0.02 h⁻¹ | viability at 72 h, 10 µM (in vitro; 10 μM): 102% | viability at 72 h, 100 µM (in vitro; 100 μM): 112% | GI transit 2.5h as % of saline group (male Sprague-Dawley rats): 45.3% and 46.0% and 49.8% and 55.5% and 53.6% and 48.3% | reversal of OIC in the presence of AG10 (male Sprague-Dawley rats): no improvement in the OIC | GI transit as % of vehicle group, compound alone (male Sprague-Dawley rats; sc): 95.27% and 87.87% and 102.14% and 105.69% and 102.69% | % compound remaining in mouse serum ([8]; 0 h, replicates): 98.29% and 100.51% and 101.20% | % compound remaining in mouse serum ([8]; 37 °C, 48 h, table replicates): 100% and 99.98% and 100.20% and 102.73% | Kp (in vivo [9]): 0.01
